In article PMC7686577, “Discovery of Novel IDH1 Inhibitor Through Comparative Structure-Based Virtual Screening” (Frontiers in Pharmacology, 2020):

Assays:
[1] = system: advanced hematological malignancies; set-up: method as in Foran et al., 2019; conditions: clinic, ref Foran et al., 2019; cited from earlier work
mutant IDH1^R132H = mutant IDH1^R132H (Homo sapiens, UniProt O75874, R132H); experiment: IDH1^R132H enzymatic assay (diaphorase/resazurin readout of NADPH); format: biochemical; conditions: for Inhibition ratio (%) 50 (μM): compound at 50 μM
Procedure: This assay added into a 384-well blank plate and then incubated at room temperature for 60 min. […] Curve fitting for dose response IC50 was done using GraphPad Prism.
These 12 ligands were submitted to determine the IC50.

Chain of mutant IDH1^R132H (O75874 whole entry R132H): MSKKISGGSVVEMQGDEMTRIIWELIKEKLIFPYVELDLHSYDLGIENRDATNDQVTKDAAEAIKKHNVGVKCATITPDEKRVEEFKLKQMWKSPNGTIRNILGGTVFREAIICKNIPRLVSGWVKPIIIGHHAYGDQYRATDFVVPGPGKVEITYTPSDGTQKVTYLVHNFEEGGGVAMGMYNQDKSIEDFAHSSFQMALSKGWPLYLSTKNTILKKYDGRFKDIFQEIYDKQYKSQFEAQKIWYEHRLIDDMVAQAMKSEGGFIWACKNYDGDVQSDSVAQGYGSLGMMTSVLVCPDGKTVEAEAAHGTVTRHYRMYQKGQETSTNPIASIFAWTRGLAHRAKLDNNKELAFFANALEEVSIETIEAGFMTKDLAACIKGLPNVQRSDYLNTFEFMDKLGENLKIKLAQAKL

Structure (SMILES)	IC50 (mutant IDH1^R132H) [µM]	Inhibition ratio (%) 50 (μM) (mutant IDH1^R132H) [%]	total overall response rate [1] [%]
N#Cc1ccnc(N2C(=O)CC[C@H]2C(=O)N(c2cncc(F)c2)[C@H](C(=O)NC2CC(F)(F)C2)c2ccccc2Cl)c1 [AG-120]	–	–	42
COc1ccc(C(=O)[C@@H](Cn2cncn2)[C@H](Sc2ccccc2)c2ccccc2)cc1 [AQ-714/41674992]	20.8 ± 4.2	73.30±1.90	–
O=C(NCc1ccc(C(F)(F)F)cc1)c1nnn(-c2ccccc2Cl)c1-c1cccnc1 [L806-0255]	28.3 ± 2.5	66.25±3.25	–
CN(CC(=O)N1N=C(c2ccccc2Cl)C[C@H]1c1ccc2c(c1)OCO2)C(=O)C1CCCC1 [V025-9252]	45.5 ± 3.1	59.15±3.75	–
CCOC(=O)c1[nH]c(C)c(CN(Cc2ccccc2)C(=O)[C@@H](C)Oc2ccccc2)c1C [G798-0506]	38 ± 2	61.15±6.15	–
CCC[C@@H]1N=C2c3ccccc3N=C(S[C@@H](CC)C(=O)Nc3cccc(Cl)c3)N2C1=O [G568-0082]	41.9 ± 8	54.30±4.30	–

Further lines, with some results ahead:

IC50 (mutant IDH1^R132H) [µM]	Inhibition ratio (%) 50 (μM) (mutant IDH1^R132H) [%]	Structure (SMILES)	total overall response rate [1] [%]
23.8 ± 1.8	65.30±2.30	O=C1C[C@H](C(=O)N(CCc2ccccc2)Cc2ccccc2)CN1Cc1cccc(Br)c1 [V015-1671]	–
50 ± 6.4	60.85±2.05	O=C1CS[C@@H](c2cccc(NS(=O)(=O)c3ccc4ccccc4c3)c2)N1c1ccc(F)cc1 [V010-1281]	–
42.9 ± 2.8	54.90±1.70	O=C(Cc1ccc(N(Cc2ccccc2)C(=O)c2cccc(F)c2)cc1)NCc1cccnc1 [V016-3750]	–
46.9 ± 6	58.00±0.60	O=C1C[C@H](C(=O)N(Cc2cccc3ccccc23)c2ccccn2)CN1Cc1ccccc1 [D491-0852]	–
